Measured values reported in PMC4965013, “Open Source Drug Discovery with the Malaria Box Compound Collection for Neglected Diseases and Beyond” (PLoS Pathogens, 2016).
Read-outs that look alike come from different tables or passages of the source.

Experiments:
[1] = tested on: P. falciparum 3D7 trophozoites; experiment: Metabolomic fingerprint profiling LC-MS; type: cell-based, Plasmodium falciparum; design: UDP-D-glucose / ADP-D-glucose: unit not given here; settings: for Acetyllysine / N-acetyl-L-ornithine / N-carbamoyl-L-aspartate / NADPH / dAMP / dCMP / dTDP / dTMP / dTTP / dihydroorotate / orotate / DLH / DLS/SDL/SID / PD / PEE / PVNF / 3-phosphoglycerate / ADP-D-glucose / ATP / CDP / D-sedoheptulose-1/7-phosphate / FAD / GMP / NAD+ / NADP+ / Octoluse Bisphosphate / Pyroglutamic acid / UDP-D-glucose / UDP-D-glucuronate / UDP-N-acetyl-glucosamine / UDP / UMP / UTP / a-ketoglutarate / citrate/isocitrate / cytidine / dATP / dGMP/AMP / fumarate / glucose-1/6-phosphate / glycerate / guanine / guanosine / hypoxanthine / indole / inosine / nicotinate / ornithine / phosphoenolpyruvate / pyruvate / ribose-phosphate / sarcosine/alanine / sn-glycerol-3-phosphate / succinate/methylmalonic acid / uridine / xanthosine: S2 Table Metabolomics; for Acetyllysine: metabolite Acetyllysine; for N-acetyl-L-ornithine: metabolite N-acetyl-L-ornithine; for N-carbamoyl-L-aspartate: metabolite N-carbamoyl-L-aspartate; for NADPH: metabolite NADPH; for dAMP: metabolite dAMP; for dCMP: metabolite dCMP; for dTDP: metabolite dTDP; for dTMP: metabolite dTMP; for dTTP: metabolite dTTP; for dihydroorotate: metabolite dihydroorotate; for orotate: metabolite orotate; for DLH: peptide DLH; for DLS/SDL/SID: peptide DLS/SDL/SID; for PD: peptide PD; for PEE: peptide PEE; for PVNF: peptide PVNF; for 3-phosphoglycerate: metabolite 3-phosphoglycerate; for ADP-D-glucose: metabolite ADP-D-glucose; for ATP: metabolite ATP; for CDP: metabolite CDP; for CDP / D-sedoheptulose-1/7-phosphate / GMP / Octoluse Bisphosphate / UDP / UMP / UTP / citrate/isocitrate / dGMP/AMP / fumarate / glucose-1/6-phosphate / glycerate / guanine / guanosine / inosine / pyruvate / sarcosine/alanine / succinate/methylmalonic acid / uridine / xanthosine: change in metabolite level after compound treatment; for D-sedoheptulose-1/7-phosphate: metabolite D-sedoheptulose-1/7-phosphate; for FAD: metabolite FAD; for GMP: metabolite GMP; for NAD+: metabolite NAD+; for NADP+: metabolite NADP+; for Octoluse Bisphosphate: metabolite Octoluse Bisphosphate; for Pyroglutamic acid: metabolite Pyroglutamic acid; for UDP-D-glucose: metabolite UDP-D-glucose; for UDP-D-glucuronate: metabolite UDP-D-glucuronate; for UDP-N-acetyl-glucosamine: metabolite UDP-N-acetyl-glucosamine; for UDP: metabolite UDP; for UMP: metabolite UMP; for UTP: metabolite UTP; for a-ketoglutarate: metabolite a-ketoglutarate; for citrate/isocitrate: metabolite citrate/isocitrate; for cytidine: metabolite cytidine; for dATP: metabolite dATP; for dGMP/AMP: metabolite dGMP/AMP; for fumarate: metabolite fumarate; for glucose-1/6-phosphate: metabolite glucose-1/6-phosphate; for glycerate: metabolite glycerate; for guanine: metabolite guanine; for guanosine: metabolite guanosine; for hypoxanthine: metabolite hypoxanthine; for indole: metabolite indole; for inosine: metabolite inosine; for 2_3-Diphosphoglyceric acid / 4-phosphopantothenate / 6-phospho-D-gluconate / FMN / IMP / Pyrophosphate / Sedoheptoluse bisphosphate / cyclic-AMP / glutathione disulfide / lactate / myo-inositol: metabolite level change after treatment; for nicotinate: metabolite nicotinate; for ornithine: metabolite ornithine; for phosphoenolpyruvate: metabolite phosphoenolpyruvate; for pyruvate: metabolite pyruvate; for ribose-phosphate: metabolite ribose-phosphate; for sarcosine/alanine: metabolite sarcosine/alanine; for sn-glycerol-3-phosphate: metabolite sn-glycerol-3-phosphate; for succinate/methylmalonic acid: metabolite succinate/methylmalonic acid; for uridine: metabolite uridine; for xanthosine: metabolite xanthosine
P. falciparum = experiment: EC50 listed in S2 Table Metabolomics (used to set the concentration tested); type: cell-based; settings: Plasmodium falciparum, read-out: EC50_nM
P. falciparum 3D7 = experiment: [3H]-hypoxanthine growth inhibition, modified HCO3- or O2; type: cell-based; settings: for IC50: Plasmodium falciparum
[2] = 3D7, read-out: P. falciparum 3D7 IC50 5% O2
[3] = EC50 used for Factor_XEC50 in metabolomics

SMILES: CCC1(C)CC(CCNCc2ccccc2O)(c2ccc(C)cc2)CCO1 (stereo not drawn) [MMV019406]
- Acetyllysine [1]: -2.519
- N-acetyl-L-ornithine [1]: -1.511
- N-carbamoyl-L-aspartate [1]: -2.298
- NADPH [1]: 0.4736
- dAMP [1]: 0.284
- dCMP [1]: -0.09039
- dTDP [1]: 0.1057
- dTMP [1]: 0.004037
- dTTP [1]: -0.4082
- dihydroorotate [1]: -2.242
- orotate [1]: -1.534
- DLH [1]: -2.275
- DLS/SDL/SID [1]: -1.841
- PD [1]: -2.354
- PEE [1]: -2.262
- PVNF [1]: -2.251
- 3-phosphoglycerate [1]: -0.1564
- ADP-D-glucose [1]: -0.3945
- ATP [1]: -0.512
- CDP [1]: 0.05599
- D-sedoheptulose-1/7-phosphate [1]: -0.4162
- FAD [1]: -0.02006
- GMP [1]: -0.3975
- NAD+ [1]: 0.008417
- NADP+ [1]: -0.1427
- Octoluse Bisphosphate [1]: -0.6015
- Pyroglutamic acid [1]: 0.2098
- UDP-D-glucose [1]: -0.0942
- UDP-D-glucuronate [1]: -0.3214
- UDP-N-acetyl-glucosamine [1]: -0.03854
- UDP [1]: -0.04555
- UMP [1]: -0.1795
- UTP [1]: -0.2654
- a-ketoglutarate [1]: -0.6947
- citrate/isocitrate [1]: 0.006162
- cytidine [1]: 0.3562
- dATP [1]: 0.258
- dGMP/AMP [1]: 0.2244
- fumarate [1]: -1.313
- glucose-1/6-phosphate [1]: -0.1461
- glycerate [1]: -0.1204
- guanine [1]: -0.06557
- guanosine [1]: -0.1693
- hypoxanthine [1]: 0.07201
- indole [1]: -0.04528
- inosine [1]: -0.2118
- 2_3-Diphosphoglyceric acid [1]: -0.5043
- 4-phosphopantothenate [1]: -0.1061
- 6-phospho-D-gluconate [1]: -0.2502
- FMN [1]: -0.1097
- IMP [1]: -0.4258
- Pyrophosphate [1]: -0.3998
- Sedoheptoluse bisphosphate [1]: -0.4722
- cyclic-AMP [1]: -0.5498
- glutathione disulfide [1]: -0.423
- lactate [1]: -0.2201
- myo-inositol [1]: -0.4627
- nicotinate [1]: 0.2145
- ornithine [1]: -0.4607
- phosphoenolpyruvate [1]: -0.0532
- pyruvate [1]: 0.03561
- ribose-phosphate [1]: -0.5159
- sarcosine/alanine [1]: -1.233
- sn-glycerol-3-phosphate [1]: -0.3535
- succinate/methylmalonic acid [1]: -0.02906
- uridine [1]: -0.4944
- xanthosine [1]: -0.9536
- EC50 (P. falciparum): 142 nM
- fold change (IC50normal/ IC50hypoxia) (P. falciparum 3D7): 2.3
- IC50 (P. falciparum 3D7; 3D7, read-out: P. falciparum 3D7 IC50 1% O2): 236 nM
- IC50 (P. falciparum 3D7; [2]): 540 nM

SMILES: Cc1cc(Nc2ccc(Cl)cc2)n2nc(C(F)(F)F)nc2n1 [MMV011256]
- Acetyllysine [1]: -0.5963
- N-acetyl-L-ornithine [1]: -0.507
- N-carbamoyl-L-aspartate [1]: 4.681
- NADPH [1]: 1.178
- dAMP [1]: -1.417
- dCMP [1]: 0.2248
- dTDP [1]: -0.9712
- dTMP [1]: -0.998
- dTTP [1]: -0.8663
- dihydroorotate [1]: 5.399
- orotate [1]: -0.2345
- DLH [1]: -0.3185
- DLS/SDL/SID [1]: -0.4128
- PD [1]: 0.2516
- PEE [1]: -0.4695
- PVNF [1]: -1.475
- 3-phosphoglycerate [1]: 0.08815
- ADP-D-glucose [1]: 0.5309
- ATP [1]: -0.05125
- CDP [1]: -0.6896
- D-sedoheptulose-1/7-phosphate [1]: 0.1853
- FAD [1]: 0.084
- GMP [1]: 0.2583
- NAD+ [1]: 0.00935
- NADP+ [1]: 0.5726
- Octoluse Bisphosphate [1]: 0.02106
- Pyroglutamic acid [1]: -0.3979
- UDP-D-glucose [1]: 0.01111
- UDP-D-glucuronate [1]: -0.02444
- UDP-N-acetyl-glucosamine [1]: -0.1642
- UDP [1]: -0.997
- UMP [1]: -0.7924
- UTP [1]: -1.308
- a-ketoglutarate [1]: -0.5125
- citrate/isocitrate [1]: -0.4219
- cytidine [1]: -0.1943
- dATP [1]: 0.3626
- dGMP/AMP [1]: 0.01292
- fumarate [1]: -0.2283
- glucose-1/6-phosphate [1]: -0.259
- glycerate [1]: -0.6701
- guanine [1]: 0.06677
- guanosine [1]: 0.3651
- hypoxanthine [1]: -0.6973
- indole [1]: -0.3061
- inosine [1]: -0.4425
- 2_3-Diphosphoglyceric acid [1]: 0.2246
- 4-phosphopantothenate [1]: -0.3914
- 6-phospho-D-gluconate [1]: 0.1976
- FMN [1]: -0.1065
- IMP [1]: 0.1475
- Pyrophosphate [1]: 0.2465
- Sedoheptoluse bisphosphate [1]: 0.08943
- cyclic-AMP [1]: -0.1063
- glutathione disulfide [1]: 0.192
- lactate [1]: -0.653
- myo-inositol [1]: -1.111
- nicotinate [1]: -0.2929
- ornithine [1]: 0.09761
- phosphoenolpyruvate [1]: 0.0459
- pyruvate [1]: -0.6078
- ribose-phosphate [1]: -0.1179
- sarcosine/alanine [1]: 0.2817
- sn-glycerol-3-phosphate [1]: -0.0008256
- succinate/methylmalonic acid [1]: 0.03166
- uridine [1]: -0.902
- xanthosine [1]: 0.002012
- EC50 (P. falciparum; [3]): 212 nM
- fold change (IC50normal/ IC50hypoxia) (P. falciparum 3D7): 5.0
- IC50 (P. falciparum 3D7; 3D7, read-out: P. falciparum 3D7 IC50 1% O2, 1% O2 hypoxia): 70 nM
- IC50 (P. falciparum 3D7; [2]): 349 nM

SMILES: O=C(NCC(c1ccsc1)N1CCCCCC1)c1ccc(C(F)(F)F)cc1 (stereo not drawn) [MMV396672]
- Acetyllysine [1]: -0.3412
- N-acetyl-L-ornithine [1]: 0.04406
- N-carbamoyl-L-aspartate [1]: 1.501
- NADPH [1]: 1.59
- dAMP [1]: -0.1547
- dCMP [1]: -0.6707
- dTDP [1]: -0.2295
- dTMP [1]: -0.1132
- dTTP [1]: -0.02683
- dihydroorotate [1]: 1.3113
- orotate [1]: -0.2374
- DLH [1]: 0.2454
- DLS/SDL/SID [1]: 0.4945
- PD [1]: -0.2062
- PEE [1]: 0.3834
- PVNF [1]: 0.4792
- 3-phosphoglycerate [1]: 0.01662
- ADP-D-glucose [1]: 0.1495
- ATP [1]: 0.06805
- CDP [1]: -0.3083
- D-sedoheptulose-1/7-phosphate [1]: -0.1874
- FAD [1]: 0.01705
- GMP [1]: -0.121
- NAD+ [1]: -0.07697
- NADP+ [1]: 0.1144
- Octoluse Bisphosphate [1]: -0.0874
- Pyroglutamic acid [1]: -0.2718
- UDP-D-glucose [1]: 0.05361
- UDP-D-glucuronate [1]: 0.1556
- UDP-N-acetyl-glucosamine [1]: -0.04862
- UDP [1]: -0.327
- UMP [1]: -1.306
- UTP [1]: -0.1422
- a-ketoglutarate [1]: -0.6396
- citrate/isocitrate [1]: -0.6773
- cytidine [1]: 0.6424
- dATP [1]: 0.05116
- dGMP/AMP [1]: -0.08656
- fumarate [1]: -0.2118
- glucose-1/6-phosphate [1]: 0.01846
- glycerate [1]: -1.2197
- guanine [1]: -0.7457
- guanosine [1]: -1.987
- hypoxanthine [1]: 0.2737
- indole [1]: 0.1693
- inosine [1]: -0.393
- 2_3-Diphosphoglyceric acid [1]: -0.1323
- 4-phosphopantothenate [1]: -0.391
- 6-phospho-D-gluconate [1]: -0.02288
- FMN [1]: 0.06346
- IMP [1]: -0.1805
- Pyrophosphate [1]: -0.05249
- Sedoheptoluse bisphosphate [1]: -0.2083
- cyclic-AMP [1]: -0.07949
- glutathione disulfide [1]: -0.4263
- lactate [1]: -0.6757
- myo-inositol [1]: -1.04
- nicotinate [1]: -1.005
- ornithine [1]: 0.1454
- phosphoenolpyruvate [1]: -0.3004
- pyruvate [1]: -1.162
- ribose-phosphate [1]: 0.03374
- sarcosine/alanine [1]: -0.5204
- sn-glycerol-3-phosphate [1]: -0.07409
- succinate/methylmalonic acid [1]: -0.4318
- uridine [1]: -0.8839
- xanthosine [1]: -0.8196
- EC50 (P. falciparum; [3]): 433 nM
- fold change (IC50reduced/IC50normal) (P. falciparum 3D7): 2.6
- IC50 (P. falciparum 3D7; 3D7, read-out: P. falciparum 3D7 IC50 HCO3- (2g/L), standard media): 425 nM
- IC50 (P. falciparum 3D7; 3D7, HCO3- reduced media, read-out: P. falciparum 3D7 IC50 HCO3- reduced): 1120 nM
